Test systems include SK-MEL-28 melanoma; SF-539 CNS; NCI-H23 lung; MDA-MB-231 breast; SR leukemia; HL-60(TB) leukemia; MALME-3M melanoma; HOP-92 NSCLC; MOLT-4 leukemia; A498 renal.
Assay in all cases: NCI anticancer screen, dose series, 48 h

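These data come from cells grown in 96-well plates and exposed to compound for 48 hours at five concentrations. GI50 = concentration required for 50% inhibition of growth. Definition used: TGI = concentration required for complete inhibition of growth.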

In the case of `CCCCCCCCCCCCCCCCC(=O)O.CCCCCCCCCCCCCCCCCC(=O)O.CCCCCCCCCCCCCCCCCC(=O)O.CCCCCCCCCCCCCCCCCC(=O)O.CCCCCCCCCCCCCCCCCC(=O)O.CO[CH-]OC12COC1CC(O)C1(C)C(O)C(OC(C)O)C3=C(C)C(OC(=O)C(O)C([NH-])c4ccccc4)CC(O)(C(OC(=O)c4ccccc4)C21)C3(C)C.[Cu+].[Zn].[Zn].[Zn].[Zn].[Zn]` (stereo not drawn), the GI50 in the experiment on SK-MEL-28 melanoma is 4680 nM; in the experiment on SF-539 CNS it was 5.98 nM; in the experiment on NCI-H23 lung, 11.5 nM; in the experiment with MDA-MB-231 breast it was 13.5 nM; with SR leukemia, 4.14 nM; in the experiment with HL-60(TB) leukemia, 4.66 nM. Further, the GI50 was 9.47 nM with MALME-3M melanoma, 858 nM in the experiment on HOP-92 NSCLC, 10.4 nM in the experiment with MOLT-4 leukemia and less than 2.5 nM in the experiment with A498 renal. Further, the TGI with SK-MEL-28 melanoma is 23700 nM; in the experiment on SF-539 CNS, 50.6 nM; in the experiment with NCI-H23 lung it was greater than 14500 nM; in the experiment with MDA-MB-231 breast it was 4480 nM; in the experiment on SR leukemia, 11500 nM; with HL-60(TB) leukemia it was greater than 25000 nM. The TGI in the experiment with MALME-3M melanoma is 6910 nM; in the experiment with HOP-92 NSCLC, 12800 nM; with MOLT-4 leukemia it was greater than 18500 nM; in the experiment with A498 renal, 18.7 nM.
Consider `COc1cc(C(=O)Nc2cc(OC)c3ccn(C)c3c2)cc2c1C[C@]1(C)CC[C@@H](O)C(C)(C)[C@H]1O2`, for which the GI50 in the experiment on SK-MEL-28 melanoma was 1770 nM; in the experiment on SF-539 CNS it was 63.2 nM; with NCI-H23 lung, 2320 nM; in the experiment on MDA-MB-231 breast it was 1860 nM; in the experiment on SR leukemia it was 83.7 nM; with HL-60(TB) leukemia, 74 nM. Further, the GI50 with MALME-3M melanoma was 2740 nM; in the experiment with HOP-92 NSCLC it was 593 nM; in the experiment on MOLT-4 leukemia it was 210 nM; in the experiment on A498 renal it was 149 nM. Besides, the TGI with SK-MEL-28 melanoma was 37100 nM; in the experiment on SF-539 CNS, 2220 nM; in the experiment on NCI-H23 lung, 18400 nM; with MDA-MB-231 breast, 16500 nM; with SR leukemia, greater than 100000 nM; in the experiment on HL-60(TB) leukemia, 3430 nM. The TGI was greater than 100000 nM in the experiment with MALME-3M melanoma, 6030 nM in the experiment on HOP-92 NSCLC, 1450 nM with MOLT-4 leukemia and 1890 nM with A498 renal.
In the case of `CN(C)c1ccc(/C=C/C2=[N+](C)c3ccccc3C2(C)C)cc1`, the GI50 with SK-MEL-28 melanoma was 1030 nM; with SF-539 CNS, 1650 nM; with NCI-H23 lung, 286 nM; in the experiment with MDA-MB-231 breast, 1510 nM; in the experiment with SR leukemia, 130 nM; with HL-60(TB) leukemia, 231 nM. The GI50 with MALME-3M melanoma is 662 nM; in the experiment on HOP-92 NSCLC it was 1800 nM; in the experiment with MOLT-4 leukemia it was 305 nM; with A498 renal, 8860 nM. Besides, the TGI with SK-MEL-28 melanoma worked out at 18000 nM; in the experiment on SF-539 CNS it was 14000 nM; with NCI-H23 lung it was 11900 nM; in the experiment with MDA-MB-231 breast it was 20900 nM; with SR leukemia, 13900 nM; in the experiment on HL-60(TB) leukemia, 801 nM. In addition, the TGI in the experiment on MALME-3M melanoma came out at 13100 nM; in the experiment with HOP-92 NSCLC it was 9030 nM; in the experiment on MOLT-4 leukemia it was 2240 nM; in the experiment on A498 renal, 74900 nM.
Take `COc1cc(C(=O)N/N=C/c2ccc(N(C)C)cc2)cc(OC)c1OC`: the GI50 was 622 nM in the experiment with SK-MEL-28 melanoma; 300 nM in the experiment with SF-539 CNS; 588 nM with NCI-H23 lung; 1890 nM in the experiment on MDA-MB-231 breast; 287 nM in the experiment with SR leukemia; 303 nM with HL-60(TB) leukemia. In addition, the GI50 in the experiment with MALME-3M melanoma is 582 nM; with HOP-92 NSCLC, 143 nM; in the experiment with MOLT-4 leukemia it was 729 nM; with A498 renal it was 172 nM. Besides, the TGI with SK-MEL-28 melanoma was greater than 100000 nM; in the experiment with SF-539 CNS, 5250 nM; with NCI-H23 lung, greater than 100000 nM; with MDA-MB-231 breast, greater than 87900 nM; with MALME-3M melanoma, greater than 100000 nM; in the experiment on HOP-92 NSCLC, 2280 nM. Also, the TGI was found to be 19400 nM with MOLT-4 leukemia and 799 nM in the experiment on A498 renal.
In the case of `CC(=O)Oc1ccc(/C(=C(\C)c2ccc(Cl)cc2)c2ccc(OCCN3CCCCC3)cc2)cc1`, the GI50 in the experiment with SK-MEL-28 melanoma was 2010 nM; with SF-539 CNS, 1840 nM; in the experiment with NCI-H23 lung, 1820 nM; in the experiment with MDA-MB-231 breast, 2040 nM; in the experiment with SR leukemia, 739 nM; in the experiment on HL-60(TB) leukemia, 2090 nM. For the same compound, the GI50 in the experiment on MALME-3M melanoma was 1960 nM; with HOP-92 NSCLC, 1640 nM; with MOLT-4 leukemia it was 1730 nM; in the experiment with A498 renal it was 3620 nM. Moreover, the TGI in the experiment with SK-MEL-28 melanoma was determined as 3890 nM; in the experiment on SF-539 CNS, 3570 nM; with NCI-H23 lung, 4430 nM; in the experiment on MDA-MB-231 breast it was 3890 nM; in the experiment on SR leukemia, 3060 nM; with HL-60(TB) leukemia, 4350 nM. Also, the TGI in the experiment on MALME-3M melanoma was determined as 3910 nM; in the experiment on HOP-92 NSCLC, 4420 nM; in the experiment on MOLT-4 leukemia, 5360 nM; with A498 renal, 15200 nM.
In the case of `Oc1cc2ccccc2c(-c2c(O)c(O)cc3ccccc23)c1O`, the GI50 was 3370 nM with SK-MEL-28 melanoma; 1680 nM with SF-539 CNS; 703 nM in the experiment with NCI-H23 lung; 4640 nM in the experiment with MDA-MB-231 breast; 912 nM with SR leukemia; 1590 nM in the experiment with HL-60(TB) leukemia. Besides, the GI50 was 3850 nM with MALME-3M melanoma, 1870 nM in the experiment on HOP-92 NSCLC, 897 nM in the experiment on MOLT-4 leukemia and 1140 nM in the experiment with A498 renal. Besides, the TGI with SK-MEL-28 melanoma is 20700 nM; in the experiment with SF-539 CNS, 5460 nM; with NCI-H23 lung, 15400 nM; in the experiment with MDA-MB-231 breast, 34200 nM; with SR leukemia, greater than 100000 nM; in the experiment on HL-60(TB) leukemia, greater than 20600 nM. The TGI with MALME-3M melanoma was determined as 21400 nM; in the experiment with HOP-92 NSCLC, 16300 nM; in the experiment with MOLT-4 leukemia it was 18700 nM; with A498 renal it was 10500 nM.
For `O=C(Nc1ccc(/C=C/c2ccc(NC(=O)c3cc(S(=O)(=O)O)c4cccnc4c3O)cc2S(=O)(=O)O)c(S(=O)(=O)O)c1)c1cc(S(=O)(=O)O)c2cccnc2c1O`, the GI50 was 25500 nM with SK-MEL-28 melanoma; 11300 nM with SF-539 CNS; 6650 nM in the experiment with NCI-H23 lung; 16300 nM in the experiment on MDA-MB-231 breast; 20.5 nM with SR leukemia; 337 nM in the experiment on HL-60(TB) leukemia. Further, the GI50 with MALME-3M melanoma is 34400 nM; in the experiment on HOP-92 NSCLC, 28500 nM; with MOLT-4 leukemia it was 1690 nM; with A498 renal, 46600 nM. Moreover, the TGI in the experiment on SK-MEL-28 melanoma is greater than 62700 nM; in the experiment with SF-539 CNS it was greater than 54900 nM; in the experiment with NCI-H23 lung, greater than 42000 nM; with MDA-MB-231 breast, greater than 68400 nM; with SR leukemia it was 170 nM; in the experiment on HL-60(TB) leukemia, 3200 nM. In addition, the TGI is greater than 62600 nM with MALME-3M melanoma, 89400 nM in the experiment with HOP-92 NSCLC, greater than 28700 nM in the experiment with MOLT-4 leukemia and greater than 64400 nM in the experiment with A498 renal.

Values taken from PubChem BioAssay (NCI).
